For data set [1], the target named is T1, GL-7ACA acylase J1 of Bacillus laterosporus J1 (SEQ ID NO: 3), purified from recombinant E. coli (Brevibacillus laterosporus, UniProt Q45289). The data set is described as follows: biochemical. The settings on record: for Relative activity (%): enzyme treated 37° C. 3 hours in 0.1 M Tris-HCl (pH 8), residual activity vs blank-treated enzyme, substrate GL-7ACA. As for the experimental part: Effect of p-chloromercuribenzoate (pCMB, Sigma Chemical Co., Ltd.), phenylmethylsulfonyl fluoride (PMSF, Sigma) and ethylenediaminetetraacetic acid (EDTA, Nacalai Tesque Inc., Japan) on the activity of GL-7ACA acylase J1 was examined as follows. Eleven μg of GL-7ACA acylase J1 was treated at 37° C. for 3 hours with 1.0 or 5.0 mM pCMB, 1.0 or 5.0 mM PMSF, or 1.0 or 5.0 mM EDTA in 200 μl of 0.1 M Tris-HCl buffer (pH 8). Residual activity of the treated enzyme was assayed by adding 22 μl of GL-7ACA (20 mg/ml) as a substrate to the mixture. The reaction was performed at 37° C for 10 min. Residual activity was expressed as a percentage compared to the activity of the enzyme treated with blank solution.
T1 sequence (Q45289 entry or part of it): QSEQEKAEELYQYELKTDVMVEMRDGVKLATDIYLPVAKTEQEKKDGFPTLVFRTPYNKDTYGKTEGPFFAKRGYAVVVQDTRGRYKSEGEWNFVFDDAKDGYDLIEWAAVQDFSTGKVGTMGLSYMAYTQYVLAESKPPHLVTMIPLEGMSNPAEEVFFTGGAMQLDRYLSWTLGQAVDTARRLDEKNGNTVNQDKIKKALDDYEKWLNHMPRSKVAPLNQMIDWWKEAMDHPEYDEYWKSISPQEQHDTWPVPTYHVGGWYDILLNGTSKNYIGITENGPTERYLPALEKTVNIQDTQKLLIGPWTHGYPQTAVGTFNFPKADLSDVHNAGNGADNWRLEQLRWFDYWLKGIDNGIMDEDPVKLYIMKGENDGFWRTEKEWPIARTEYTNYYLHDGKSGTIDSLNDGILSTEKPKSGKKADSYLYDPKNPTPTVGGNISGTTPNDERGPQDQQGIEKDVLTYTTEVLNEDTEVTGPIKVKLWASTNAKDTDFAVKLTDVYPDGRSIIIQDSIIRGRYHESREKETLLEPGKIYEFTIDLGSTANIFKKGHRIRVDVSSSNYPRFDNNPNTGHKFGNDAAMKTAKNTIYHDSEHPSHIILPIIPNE

The target in data set [2] is T1, GL-7ACA acylase J1 of Bacillus laterosporus J1 (SEQ ID NO: 3), purified from recombinant E. coli. The data set is described as follows: Inhibition by reaction products (competitive), Ki determination by HPLC assay. Format: biochemical. The settings on record: substrate GL-7ACA, 37° C. The protocol: Inhibitory activity of reaction products, namely 7-ACA and glutaric acid on the enzyme activity of GL-7ACA acylase J1 was examined. The enzyme activity was assayed in the presence of various concentrations of 7-ACA or glutaric acid. For determination of Ki of 7-ACA, reaction mixture (200 μl) containing 20 μmole of glycine buffer (pH 9), 0.39-2.0 μmole of GL-7ACA, 0.3-0.48 μmole of 7-ACA and 11 μg of enzyme was used and the reaction was performed at 37° C. for 6 min. For determination of Ki of glutaric acid, reaction mixture (200 μl) containing (a) 20 μmole of glycine buffer (pH 9), 0.26-3.0 μmol of GL-7ACA, 2-10 μmol of glutaric acid and 11 μg of the enzyme (b) 20 μmol of Tris-HCl buffer (pH 8), 0.05-1.0 μmol of GL-7ACA, […] of glutaric acid and 5 μg of the enzyme was used. The reaction was performed at 37° C. for 3 min. […] Ki values were calculated from the apparent Michaelis constants (Kmapp), Km and Vmax. Ki values of 7-ACA was 2.0 mM.

In data set [3] the test system is CC(=O)OCC1=C(C(=O)O)N2C(=O)C(NC(=O)CCCC(=O)O)[C@H]2SC1. The data set is described as follows: Michaelis-Menten kinetics of GL-7ACA hydrolysis, HPLC assay, Lineweaver-Burk plot. Format: biochemical, Bacillus laterosporus J1. The following applies: 37° C., 2 min. As for the experimental part: Transformant colonies were picked up and grown overnight at 30° C. in 1 ml of 2% Bouillon (Eiken Chemical Co., Ltd., Japan) supplemented with 1 mM […] (IPTG; Sigma Chemical Co., Ltd., U.S.A.). Cells were harvested by centrifugation and resulting cell pellets were used for assay. Reaction mixture (200 μl ) containing 100 mM phosphate buffer (pH 8), 2 mg of GL-7ACA and cell pellets were thoroughly mixed and incubated for 10 min at 37° C. The reaction was terminated by the addition of 200 μl of 4% acetic acid. Samples were applied to a Inertsil ODS-2 column (4.6 mm × 150 mm) (Gasukuro Kogyo Co., Ltd., Japan) and elution was performed with 0.567 g/l of Na2 HPO4, 0.36 g/l of KH2 PO4 and 2-4% methanol. 7ACA was detected with absorption at 254 nm.
The activity of the GL-7ACA acylase J1 was determined by HPLC assay. […] Specific enzyme activity was expressed as unit per mg of protein. Protein concentrations were determined by Bio-Rad protein assay kit (Bio-Rad Co., Ltd., U.S.A.) with bovine serum albumin as a standard. Maximum specific enzyme activity (Vmax) and Michaelis constant (Km) were calculated from slope and intersection which were obtained by Lineweaver-Burk plot (Cf. M. Dixon and E. C. Webb, Enzymes, Longmans, London, 1958). […]

Setting [4] is: pH 8, read-out: Relative activity (%).

Like-named read-outs stand apart in the source and are kept apart here.

Consider `O=S(=O)(F)Cc1ccccc1` [PMSF, phenylmethylsulfonyl fluoride], for which the “Relative activity (%)” value stood at 90% in data set [1] (inhibitor 1 mM) and 78% in data set [1] (inhibitor 5 mM). As usually defined, the Ki is a measure of affinity in units of concentration, obtained from inhibition or displacement. Take `CC(=O)OCC1=C(C(=O)O)N2C(=O)C(N)C2SC1` (centres unmarked) [7-ACA, 7-aminocephalosporanic acid]: the Ki in data set [2] (glycine buffer (pH 9), 6 min, read-out: Ki of 7-ACA) is 2000 µM.

Turning to `O=C(O)CN(CCN(CC(=O)O)CC(=O)O)CC(=O)O` [EDTA, ethylenediaminetetraacetic acid], in data set [1] (setting [4]), the activity at 1000 µM turned out to be 100% and the activity at 5000 µM is 102%. For the molecule `O=C(O)c1cc[c]([Hg][Cl])cc1` [pCMB, p-chloromercuribenzoate], the figures for the “Relative activity (%)” value in data set [1] (inhibitor 1 mM) and in data set [1] (inhibitor 5 mM) were 106% and 104%, respectively. One may read the Km as the substrate concentration at which the rate is half of its maximum. As to “GL-7ACA acylase J1 of Bacillus laterosporus J1 (SEQ ID NO: 3), purified from recombinant E. coli (Brevibacillus laterosporus)”, the Michaelis-Menten constant (Km) in data set [3] (other: 100 mM Tris-HCl buffer (pH 8), 0.16-5 mM GL-7ACA, pH 8.0) is 140 µM; in data set [3] (other: 100 mM glycine buffer (pH 9), 1.4-20 mM GL-7ACA, pH 9.0) it was 3200 µM. On to `O=C(O)CCCC(=O)O` [glutaric acid], for which the Ki in data set [2] (0.1M Tris-HCl buffer (pH 8), 3 min, read-out: Ki of glutaric acid) was 990 µM; in data set [2] (0.1M glycine buffer (pH 9), 3 min, read-out: Ki of glutaric acid) it was 53000 µM.

These data come from US5310659A, “GL-7ACA acylase” (priority 1990, dated 1994).
